# Molecular target: T1, hDGAT1 (Homo sapiens, UniProt O75907)
# T1 construct: made in house; host or cells: Sf9 insect cells (baculovirus); microsomal fraction
# T1 sequence (O75907 1-488): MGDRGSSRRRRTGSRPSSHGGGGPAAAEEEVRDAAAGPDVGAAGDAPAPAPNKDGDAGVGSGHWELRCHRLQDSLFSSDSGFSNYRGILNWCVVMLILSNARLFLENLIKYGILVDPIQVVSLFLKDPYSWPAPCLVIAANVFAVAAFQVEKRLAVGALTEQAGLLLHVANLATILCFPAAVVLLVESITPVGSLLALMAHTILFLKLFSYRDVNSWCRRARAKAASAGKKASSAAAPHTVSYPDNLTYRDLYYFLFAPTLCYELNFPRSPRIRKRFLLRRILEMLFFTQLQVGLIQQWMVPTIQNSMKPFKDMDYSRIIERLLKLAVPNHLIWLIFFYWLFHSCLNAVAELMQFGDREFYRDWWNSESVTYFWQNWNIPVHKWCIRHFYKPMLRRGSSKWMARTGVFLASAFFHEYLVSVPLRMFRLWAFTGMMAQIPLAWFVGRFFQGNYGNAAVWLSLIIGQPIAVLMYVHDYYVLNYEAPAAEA
# Experiment: In-vitro DGAT1 assay with hDGAT1 microsomes from Sf9 cells (14C oleoyl CoA, scintillation counting)
# Format: biochemical
# Conditions: at 1 μM
# Protocol: Sf9 cells were grown in T25 flasks containing Graces's Insect media with 10% FBS with antibiotic (100 units/mL penicillin, 100 μg/mL streptomycin sulphate, 0.25 μg/mL Amptotericin B as Fungizone) grown in a 27° C. incubator.
# hDGAT10RF expression clone (RZPDo839C09146 in pDEST vector) was obtained from RZPD, German Science Center for Genomes research, Germany. hDGAT1 bacmid DNA was obtained by transformation of the hDGAT1 expression clone into DH10Bac E. coli competent cells. Approximately 1 μg of hDGAT1 bacmid DNA was infected into Sf9 cells with Cellfectin (Invitrogen) reagent. Following infection, Sf9 cells were incubated at 27° C. for 30 min. Five hours after infection, the media was replaced with growth media containing antibiotics (100 units/mL penicillin, 100 μg/mL streptomycin sulphate, 0.25 μg/mL Amptotericin B as Fungizone) and incubated at 27° C. for 72 h. The supernatant containing the virus was centrifuged at 1500×g for 5 min, passed through 0.22 μm filter, and subsequently stored at 4° C. The virus was further amplified three more times by re-infection of Sf9 cells and the viral titer was determined by plaque assay.
# Sf9 cells were seeded in spinner flasks on day 0 at a cell density of 1×10^6 and infected on day 1 with hDGAT1 baculovirus at a multiplicity of infection (MOI) of 5 and a cell density of 2×10^6. On day 3 (or 66-72 h), cells were harvested and centrifuged at 2500×g for 10 min. Pellet was resuspended in lysis buffer (100 mM sucrose, 50 mM KCl, 40 mM KH2PO4, 30 mM EDTA, pH 7.2) and passed through 21-gauge needle approximately 10 times. The mixture was centrifuged at 12,000 rpm in a Sigma 12158-H rotor at 4° C. for 30 min. The supernatant was subjected to centrifugation at 35,000 rpm in a Beckman Ti-45 rotor at 4° C. for 1 h. The resultant pellet containing the microsomes wasere resuspended overnight in 1 mL of lysis buffer and total protein concentration was estimated using Bradford Reagent. Microsomes were aliquoted and stored at −80° C.
# Frozen aliquots of hDGAT1 containing microsomes were thawed (5-10 mg/mL total protein) on ice and diluted to a working stock of 1 mg/mL with DGAT Assay Buffer (DAB). The DGAT reaction assay was performed by following the procedure described in U.S. Pat. No. 6,607,893 with some modifications that are described below.
# 1 mL stock solution of DGAT1 substrate mixture contains 5.6 μL of ^14C oleoyl CoA (16.8 nCi) and […] of 1,2-dioleoyl-sn-glycerol (1228.5 μM) 1,2-dioleoyl-sn-glycerol stock (19.5 mM) was prepared by dissolving 25 mg of 1,2-dioleoyl-sn-glycerol (Sigma, US) in 2060 μL of acetone.
# The assay was performed in duplicates in a reaction volume of 100 μL.
# The reaction was started by the addition of 2.5 μL of 1 mg/mL of microsomes (iv) to the mixture of (i), (ii) and (iii), and incubated at 37° C. for 10 min. The reaction was stopped by the addition of 300 μL of Alkaline Ethanol Stop Solution Mix [AESSM; 12.5% of 100% non-denatured ethanol, 10% deionized water, 2.5% 1N NaOH, 75% stop solution (78.4% isopropanol, 19.6% n-heptane, 2% deionized water)] followed by addition of 600 μL of n-heptane. The mixture was vortexed and the triglycerides formed were extracted into the organic heptane phase. 250 μL of the heptane phase was added into 4 mL scintillation cocktail (66.72% toluene, 33.3% TritonX-100, 0.5% PPO, 0.02% POPOP) and counted on a liquid scintillation counter for 1 min. Data was collected and plotted as a function of concentration in nM versus percentage inhibition of hDGAT1 by the compounds of present invention.
row,Compound,Percentage inhibition of hDGAT1
1,"3-(5-(4-(3-(2-Chlorophenyl)ureido)phenyl)thiazol-2-yl)-2,2-diethylpropanoic acid [Example 30]",++ (>50 % Inhibition)
2,"3-(5-(4-(4-Tert-butyl benzamido)phenyl)oxazol-2-yl)-2,2-dimethylpropanoic acid [Example 126]",+ (20-50% Inhibition)
3,"4-(3-(4-(3-(2,4-Difluorophenyl)ureido)phenyl)-1,2,4-oxadiazol-5-yl)butanoic acid [Example 332]",+ (20-50% Inhibition)
4,"4-(5-(4-(3-(2-Fluorophenyl)-2-methylguanidino)phenyl)thiazol-2-yl)-2,2-dimethyl butanoic acid [Example 271]",+ (20-50% Inhibition)
5,"CC(C)(Cc1ncc(-c2ccc(NC(=O)c3ccc(-c4ccccc4)cc3)cc2)s1)C(=O)O [Example 44, 3-(5-(4-Biphenyl-4-ylcarboxamidophenyl)thiazol-2-yl)-2,2-dimethylpropanoic acid]",+ (20-50% Inhibition)
6,"O=C(O)CCCc1ncc(-c2ccc(NC(=O)c3ccc(-c4ccccc4)cc3)cc2)s1 [Example 61, 4-(5-(4-Biphenyl-4-ylcarboxamidophenyl)thiazol-2-yl)butanoic acid]",++ (>50 % Inhibition)

# Same assay, conditions: read-out: Percentage inhibition of hDGAT1
row,Compound,inhibition at 1 µM
1,"O=C(O)CCc1ncc(-c2ccc(NC(=O)Nc3cccc(C(F)(F)F)c3)cc2)s1 [Example 7, 3-(5-(4-(3-(3-(Trifluoromethyl)phenyl)ureido)phenyl)thiazol-2-yl)propanoic acid]",> 50%
2,"O=C(O)CCc1ncc(-c2ccc(NC(=O)Nc3ccccc3Cl)cc2)s1 [Example 9, 3-(5-(4-(3-(2-Chlorophenyl)ureido)phenyl)thiazol-2-yl)propanoic acid]",> 50%
3,"O=C(O)CCc1ncc(-c2ccc(NC(=O)NC3CCCCC3)cc2)s1 [Example 11, 3-(5-(4-(3-Cyclohexylureido)phenyl)thiazol-2-yl)propanoic acid]",> 50%
4,"O=C(O)CCc1ncc(-c2ccc(NC(=O)Nc3ccc(Cl)cc3Oc3ccccc3)cc2)s1 [Example 13, 3-(5-(4-(3-(4-Chloro-2-phenoxyphenyl)ureido)phenyl)thiazol-2-yl)propanoic acid]",> 50%
5,"CC(C)(C)c1ccc(C(=O)Nc2ccc(-c3cnc(CCC(=O)O)s3)cc2)cc1 [Example 15, 3-(5-(4-(4-Tert-butylbenzamido)phenyl)thiazol-2-yl)propanoic acid]",> 50%
6,"CCCCCc1ccc(C(=O)Nc2ccc(-c3cnc(CCC(=O)O)s3)cc2)cc1 [Example 17, 3-(5-(4-(4-Pentylbenzamido)phenyl)thiazol-2-yl)propanoic acid]",> 50%
7,"CCOc1cc(COC)cc(C(=O)Nc2ccc(-c3cnc(CCC(=O)O)s3)cc2)c1 [Example 19, 3-(5-(4-(3-Ethoxy-5-(methoxymethyl)benzamido)phenyl)thiazol-2-yl)propanoic acid]",> 50%
8,"O=C(O)CCc1ncc(-c2ccc(NC(=O)c3ccc4ccccc4c3)cc2)s1 [Example 21, 3-(5-(4-(2-Naphthamido)phenyl)thiazol-2-yl)propanoic acid]",> 50%
9,"CCCCOc1ccc(C(=O)Nc2ccc(-c3cnc(CCC(=O)O)s3)cc2)cc1 [Example 23, 3-(5-(4-(4-Butoxybenzamido)phenyl)thiazol-2-yl)propanoic acid]",> 50%
10,"COc1ccc(S(=O)(=O)Nc2ccc(-c3cnc(CCC(=O)O)s3)cc2)c(OC)c1 [Example 25, 3-(5-(4-(2,4-Dimethoxyphenylsulfonamido)phenyl)thiazol-2-yl)propanoic acid]",20 to 50%
11,"CC(C)(Cc1ncc(-c2ccc(NC(=O)Nc3ccc(C(F)(F)F)cc3)cc2)s1)C(=O)O [Example 32, 2,2-Dimethyl-3-(5-(4-(3-(4-(trifluoromethyl)phenyl)ureido)phenyl)thiazol-2-yl)propanoic acid]",> 50%
12,"CC(C)(Cc1ncc(-c2ccc(NC(=O)Nc3ccc(F)cc3)cc2)s1)C(=O)O [Example 34, 3-(5-(4-(3-(4-Fluorophenyl)ureido)phenyl)thiazol-2-yl)-2,2-dimethylpropanoic acid]",20 to 50%
13,"COc1ccc(NC(=O)Nc2ccc(-c3cnc(CC(C)(C)C(=O)O)s3)cc2)cc1 [Example 36, 3-(5-(4-(3-(4-Methoxyphenyl)ureido)phenyl)thiazol-2-yl)-2,2-dimethyl propanoic acid]",> 50%
14,"CC(C)(Cc1ncc(-c2ccc(NC(=O)NC3CCCCC3)cc2)s1)C(=O)O [Example 38, 3-(5-(4-(3-Cyclohexylureido)phenyl)thiazol-2-yl)-2,2-dimethylpropanoic acid]",20 to 50%
15,"CC(C)(Cc1ncc(-c2ccc(NC(=O)Nc3ccc(Cl)cc3Oc3ccccc3)cc2)s1)C(=O)O [Example 40, 3-(5-(4-(3-(4-Chloro-2-phenoxyphenyl)ureido)phenyl)thiazol-2-yl)-2,2-dimethylpropanoic acid]",> 50%
16,"CC(C)(Cc1ncc(-c2ccc(NC(=O)c3ccc(C(C)(C)C)cc3)cc2)s1)C(=O)O [Example 42, 3-(5-(4-(4-tert-Butylbenzamido)phenyl)thiazol-2-yl)-2,2-dimethylpropanoic acid]",20 to 50%
17,"O=C(O)CCCc1ncc(-c2ccc(NC(=O)Nc3cccc(C(F)(F)F)c3)cc2)s1 [Example 49, 4-(5-(4-(3-(3-(Trifluoromethyl)phenyl)ureido)phenyl)thiazol-2-yl)butanoic acid]",> 50%
18,"O=C(O)CCCc1ncc(-c2ccc(NC(=O)Nc3ccccc3Cl)cc2)s1 [Example 51, 4-(5-(4-(3-(2-Chlorophenyl)ureido)phenyl)thiazol-2-yl)butanoic acid]",> 50%
19,"Cc1ccc(NC(=O)Nc2ccc(-c3cnc(CCCC(=O)O)s3)cc2)cc1C [Example 53, 4-(5-(4-(3-(3,4-Dimethylphenyl)ureido)phenyl)thiazol-2-yl)butanoic acid]",> 50%
20,"O=C(O)CCCc1ncc(-c2ccc(NC(=O)Nc3ccc(Cl)cc3Oc3ccccc3)cc2)s1 [Example 55, 4-(5-(4-(3-(4-Chloro-2-phenoxyphenyl)ureido)phenyl)thiazol-2-yl)butanoic acid]",> 50%
21,"CC(C)(C)c1ccc(C(=O)Nc2ccc(-c3cnc(CCCC(=O)O)s3)cc2)cc1 [Example 57, 4-(5-(4-(4-Tert-butylbenzamido)phenyl)thiazol-2-yl)butanoic acid]",20 to 50%
22,"CCCCCc1ccc(C(=O)Nc2ccc(-c3cnc(CCCC(=O)O)s3)cc2)cc1 [Example 59, 4-(5-(4-(4-Pentylbenzamido)phenyl)thiazol-2-yl)butanoic acid]",> 50%
23,"COc1ccc(S(=O)(=O)Nc2ccc(-c3cnc(CCCC(=O)O)s3)cc2)c(OC)c1 [Example 63, 4-(5-(4-(2,4-Dimethoxyphenylsulfonamido)phenyl)thiazol-2-yl)butanoic acid]",20 to 50%

# Reference: patent US20130158075A1, “HETEROCYCLIC COMPOUNDS AS DGAT1 INHIBITORS” (PIRAMAL ENTERPRISES LIMITED, priority 2010, published 2013)
